From ChEMBL document CHEMBL3885881, “DrugMatrix”

Organism: Rattus norvegicus
Test: DrugMatrix - Regimen: Daily Repeat
Type: toxicity, organism-based, Sprague-Dawley
Design: regimen Daily Repeat, gender Male, age 6-8 weeks
Conditions: in vivo, po, route oral GAVAGE, vehicle .5 % CMC; for BASOPHIL / EOSINOPHIL / ERYTHROCYTE COUNT / HEMATOCRIT / HEMOGLOBIN / LEUKOCYTE COUNT / LYMPHOCYTE / MEAN CORPUSCULAR HEMOGLOBIN / MEAN CORPUSCULAR HEMOGLOBIN CONCENTRATION / MEAN CORPUSCULAR VOLUME / MONOCYTE / NEUTROPHIL / PLATELET COUNT: tissue Blood; for ALANINE AMINOTRANSFERASE / ALBUMIN / ALKALINE PHOSPHATASE / ASPARTATE AMINOTRANSFERASE / BLOOD UREA NITROGEN / CHLORIDE / CHOLESTEROL / CREATINE PHOSPHOKINASE / CREATININE / GLUCOSE / PHOSPHORUS / POTASSIUM / SODIUM / TOTAL PROTEIN: tissue Plasma
[1] = 0 mg/kg, 72 h, dose level Control, time 3 day
[2] = 0 mg/kg, 120 h, dose level Control, time 5 day
[3] = 80 mg/kg, 72 h, dose level Low, time 3 day
[4] = 80 mg/kg, 120 h, dose level Low, time 5 day
[5] = 2000 mg/kg, 72 h, dose level High, time 3 day
[6] = 2000 mg/kg, 120 h, dose level High, time 5 day

`CN(C/C=C/C#CC(C)(C)C)Cc1cccc2ccccc12` [TERBINAFINE] was tested, and the BASOPHIL [1] was 0%, the EOSINOPHIL [1] was 0.4% and the “ERYTHROCYTE COUNT” value [1] was 6.43 x10E6/uL. For the same compound, the HEMATOCRIT [1] was 37.36%, the HEMOGLOBIN [1] was 13.98 G/DL and the “LEUKOCYTE COUNT” value [1] was 13 x10E3/uL. The LYMPHOCYTE [1] was 81.4%, the “MEAN CORPUSCULAR HEMOGLOBIN” value [1] was 21.9 pg and the “MEAN CORPUSCULAR HEMOGLOBIN CONCENTRATION” value [1] was 37.4 G/DL. The “MEAN CORPUSCULAR VOLUME” value [1] was 58.52 fL, the MONOCYTE [1] was 0.4% and the NEUTROPHIL [1] was 18%. For the same compound, the “PLATELET COUNT” value [1] was 1386 x10E3/uL, the “ALANINE AMINOTRANSFERASE” value [1] was 39.33 u/L and the ALBUMIN [1] was 3.57 G/DL. The “ALKALINE PHOSPHATASE” value [1] was 283.83 u/L, the “ASPARTATE AMINOTRANSFERASE” value [1] was 69.5 u/L and the “BLOOD UREA NITROGEN” value [1] was 14.83 mg/dL. The CHLORIDE [1] was 107.33 MEQ/L, the CHOLESTEROL [1] was 75.17 mg/dL and the “CREATINE PHOSPHOKINASE” value [1] was 107.67 u/L. It also gave a CREATININE [1] of 0.48 mg/dL, a GLUCOSE [1] of 172.5 mg/dL and a PHOSPHORUS [1] of 10.48 mg/dL. For the same compound, the POTASSIUM [1] was 6.9 MEQ/L, the SODIUM [1] was 152.33 MEQ/L and the “TOTAL PROTEIN” value [1] was 5.9 G/DL. For the same compound, the BASOPHIL [2] was 0%, the EOSINOPHIL [2] was 0.4% and the “ERYTHROCYTE COUNT” value [2] was 6.96 x10E6/uL. The HEMATOCRIT [2] was 41.12%, the HEMOGLOBIN [2] was 15.24 G/DL and the “LEUKOCYTE COUNT” value [2] was 11.06 x10E3/uL. The LYMPHOCYTE [2] was 88.6%, the “MEAN CORPUSCULAR HEMOGLOBIN” value [2] was 21.96 pg and the “MEAN CORPUSCULAR HEMOGLOBIN CONCENTRATION” value [2] was 37.1 G/DL. The “MEAN CORPUSCULAR VOLUME” value [2] was 59.12 fL, the MONOCYTE [2] was 0.2% and the NEUTROPHIL [2] was 10.8%. For the same compound, the “PLATELET COUNT” value [2] was 1155.8 x10E3/uL, the “ALANINE AMINOTRANSFERASE” value [2] was 36.33 u/L and the ALBUMIN [2] was 3.72 G/DL. For the same compound, the “ALKALINE PHOSPHATASE” value [2] was 340.33 u/L, the “ASPARTATE AMINOTRANSFERASE” value [2] was 68.33 u/L and the “BLOOD UREA NITROGEN” value [2] was 15 mg/dL. The CHLORIDE [2] was 108.17 MEQ/L, the CHOLESTEROL [2] was 74.67 mg/dL and the “CREATINE PHOSPHOKINASE” value [2] was 110.67 u/L. It also gave a CREATININE [2] of 0.47 mg/dL, a GLUCOSE [2] of 171.33 mg/dL and a PHOSPHORUS [2] of 10.05 mg/dL. The POTASSIUM [2] was 6.7 MEQ/L, the SODIUM [2] was 155.5 MEQ/L and the “TOTAL PROTEIN” value [2] was 6.33 G/DL. The BASOPHIL [3] was 0%, the EOSINOPHIL [3] was 0.33% and the “ERYTHROCYTE COUNT” value [3] was 6.8 x10E6/uL. For the same compound, the HEMATOCRIT [3] was 41.03%, the HEMOGLOBIN [3] was 15.13 G/DL and the “LEUKOCYTE COUNT” value [3] was 14.73 x10E3/uL. For the same compound, the LYMPHOCYTE [3] was 86.67%, the “MEAN CORPUSCULAR HEMOGLOBIN” value [3] was 22.37 pg and the “MEAN CORPUSCULAR HEMOGLOBIN CONCENTRATION” value [3] was 36.9 G/DL. The “MEAN CORPUSCULAR VOLUME” value [3] was 60.57 fL, the MONOCYTE [3] was 0.33% and the NEUTROPHIL [3] was 12.67%. The “PLATELET COUNT” value [3] was 1306.67 x10E3/uL, the “ALANINE AMINOTRANSFERASE” value [3] was 36 u/L and the ALBUMIN [3] was 3.5 G/DL. For the same compound, the “ALKALINE PHOSPHATASE” value [3] was 332 u/L, the “ASPARTATE AMINOTRANSFERASE” value [3] was 55.67 u/L and the “BLOOD UREA NITROGEN” value [3] was 12.67 mg/dL. For the same compound, the CHLORIDE [3] was 110.33 MEQ/L, the CHOLESTEROL [3] was 64 mg/dL and the “CREATINE PHOSPHOKINASE” value [3] was 119.33 u/L. For the same compound, the CREATININE [3] was 0.57 mg/dL, the GLUCOSE [3] was 180.67 mg/dL and the PHOSPHORUS [3] was 10.6 mg/dL. The POTASSIUM [3] was 7.07 MEQ/L, the SODIUM [3] was 155.67 MEQ/L and the “TOTAL PROTEIN” value [3] was 5.87 G/DL. For the same compound, the BASOPHIL [4] was 0%, the EOSINOPHIL [4] was 0.33% and the “ERYTHROCYTE COUNT” value [4] was 5.98 x10E6/uL. For the same compound, the HEMATOCRIT [4] was 35.23%, the HEMOGLOBIN [4] was 12.83 G/DL and the “LEUKOCYTE COUNT” value [4] was 13.7 x10E3/uL. For the same compound, the LYMPHOCYTE [4] was 85.33%, the “MEAN CORPUSCULAR HEMOGLOBIN” value [4] was 21.47 pg and the “MEAN CORPUSCULAR HEMOGLOBIN CONCENTRATION” value [4] was 36.4 G/DL. The “MEAN CORPUSCULAR VOLUME” value [4] was 58.97 fL, the MONOCYTE [4] was 0% and the NEUTROPHIL [4] was 14%. For the same compound, the “PLATELET COUNT” value [4] was 1155 x10E3/uL, the “ALANINE AMINOTRANSFERASE” value [4] was 39 u/L and the ALBUMIN [4] was 3.43 G/DL. The “ALKALINE PHOSPHATASE” value [4] was 357.33 u/L, the “ASPARTATE AMINOTRANSFERASE” value [4] was 60.33 u/L and the “BLOOD UREA NITROGEN” value [4] was 13.33 mg/dL. For the same compound, the CHLORIDE [4] was 106.67 MEQ/L, the CHOLESTEROL [4] was 67.33 mg/dL and the “CREATINE PHOSPHOKINASE” value [4] was 121.67 u/L. For the same compound, the CREATININE [4] was 0.47 mg/dL, the GLUCOSE [4] was 151.33 mg/dL and the PHOSPHORUS [4] was 9.77 mg/dL. For the same compound, the POTASSIUM [4] was 6.7 MEQ/L, the SODIUM [4] was 151.33 MEQ/L and the “TOTAL PROTEIN” value [4] was 5.73 G/DL. The BASOPHIL [5] was 0%, the EOSINOPHIL [5] was 0% and the “ERYTHROCYTE COUNT” value [5] was 6.96 x10E6/uL. For the same compound, the HEMATOCRIT [5] was 41.1%, the HEMOGLOBIN [5] was 15.27 G/DL and the “LEUKOCYTE COUNT” value [5] was 8.67 x10E3/uL. For the same compound, the LYMPHOCYTE [5] was 76.67%, the “MEAN CORPUSCULAR HEMOGLOBIN” value [5] was 21.9 pg and the “MEAN CORPUSCULAR HEMOGLOBIN CONCENTRATION” value [5] was 37.13 G/DL. For the same compound, the “MEAN CORPUSCULAR VOLUME” value [5] was 58.93 fL, the MONOCYTE [5] was 0% and the NEUTROPHIL [5] was 23.33%. The “PLATELET COUNT” value [5] was 1235.33 x10E3/uL, the “ALANINE AMINOTRANSFERASE” value [5] was 55.67 u/L and the ALBUMIN [5] was 3.63 G/DL. For the same compound, the “ALKALINE PHOSPHATASE” value [5] was 246.33 u/L, the “ASPARTATE AMINOTRANSFERASE” value [5] was 120.33 u/L and the “BLOOD UREA NITROGEN” value [5] was 11.33 mg/dL. The CHLORIDE [5] was 108.67 MEQ/L, the CHOLESTEROL [5] was 105.33 mg/dL and the “CREATINE PHOSPHOKINASE” value [5] was 122 u/L. For the same compound, the CREATININE [5] was 0.5 mg/dL, the GLUCOSE [5] was 140.67 mg/dL and the PHOSPHORUS [5] was 10.4 mg/dL. The POTASSIUM [5] was 6.3 MEQ/L, the SODIUM [5] was 156.33 MEQ/L and the “TOTAL PROTEIN” value [5] was 5.9 G/DL. For the same compound, the BASOPHIL [6] was 0%, the EOSINOPHIL [6] was 0.33% and the “ERYTHROCYTE COUNT” value [6] was 6.14 x10E6/uL. For the same compound, the HEMATOCRIT [6] was 37.1%, the HEMOGLOBIN [6] was 13.7 G/DL and the “LEUKOCYTE COUNT” value [6] was 6.8 x10E3/uL. The LYMPHOCYTE [6] was 87.33%, the “MEAN CORPUSCULAR HEMOGLOBIN” value [6] was 22.37 pg and the “MEAN CORPUSCULAR HEMOGLOBIN CONCENTRATION” value [6] was 36.9 G/DL. The “MEAN CORPUSCULAR VOLUME” value [6] was 60.57 fL, the MONOCYTE [6] was 0% and the NEUTROPHIL [6] was 12.33%. For the same compound, the “PLATELET COUNT” value [6] was 1319.67 x10E3/uL, the “ALANINE AMINOTRANSFERASE” value [6] was 37.67 u/L and the ALBUMIN [6] was 3.6 G/DL. For the same compound, the “ALKALINE PHOSPHATASE” value [6] was 327.67 u/L, the “ASPARTATE AMINOTRANSFERASE” value [6] was 56 u/L and the “BLOOD UREA NITROGEN” value [6] was 12 mg/dL. For the same compound, the CHLORIDE [6] was 106.33 MEQ/L, the CHOLESTEROL [6] was 84.67 mg/dL and the “CREATINE PHOSPHOKINASE” value [6] was 117.33 u/L. For the same compound, the CREATININE [6] was 0.53 mg/dL, the GLUCOSE [6] was 141 mg/dL and the PHOSPHORUS [6] was 10.63 mg/dL. For the same compound, the POTASSIUM [6] was 6.4 MEQ/L, the SODIUM [6] was 152 MEQ/L and the “TOTAL PROTEIN” value [6] was 5.73 G/DL.
